Publication PMC10408569, “Recruitment of hexahydroquinoline as anticancer scaffold targeting inhibition of wild and mutants EGFR (EGFR^WT, EGFR^T790M, and EGFR^L858R)” (Journal of Enzyme Inhibition and Medicinal Chemistry, 2023)

Key:
[1] = system: SR; assay: NCI-60 anticancer screening (SRB); assay type: cell-based; conditions: Homo sapiens, leukemia, one dose 10 μM, read-out: Growth Inhibition Percentage (GI %)
[2] = system: IGROV1; assay: NCI-60 anticancer screening (SRB); assay type: cell-based; conditions: Homo sapiens, IGROV-1; IGROV1, ovarian cancer; one dose 10 μM; read-out: Growth Inhibition Percentage (GI %)
[3] = system: RPMI-8226; assay: NCI-60 anticancer screening (SRB); assay type: cell-based; conditions: Homo sapiens; RPMI-8226, leukemia; one dose 10 μM; read-out: Growth Inhibition Percentage (GI %)
[4] = system: K-562; assay: NCI-60 anticancer screening (SRB); assay type: cell-based; conditions: Homo sapiens, K562; K-562, leukemia; one dose 10 μM; read-out: Growth Inhibition Percentage (GI %)
[5] = system: M14; assay: NCI-60 anticancer screening (SRB); assay type: cell-based; conditions: Homo sapiens; M14, melanoma; one dose 10 μM; read-out: Growth Inhibition Percentage (GI %)
[6] = system: OVCAR-5; assay: NCI-60 anticancer screening (SRB); assay type: cell-based; conditions: Homo sapiens; OVCAR-5, ovarian cancer; one dose 10 μM; read-out: Growth Inhibition Percentage (GI %)
[7] = system: EKVX; assay: NCI-60 anticancer screening (SRB); assay type: cell-based; conditions: Homo sapiens, NSC lung cancer, one dose 10 μM, read-out: Growth Inhibition Percentage (GI %)
[8] = system: HOP-92; assay: NCI-60 anticancer screening (SRB); assay type: cell-based; conditions: Homo sapiens; HOP-92, NSC lung cancer; one dose 10 μM; read-out: Growth Inhibition Percentage (GI %)
[9] = system: MALME-3M; assay: NCI-60 anticancer screening (SRB); assay type: cell-based; conditions: Homo sapiens, melanoma, one dose 10 μM, read-out: Growth Inhibition Percentage (GI %)
[10] = system: HOP-62; assay: NCI-60 anticancer screening (SRB); assay type: cell-based; conditions: Homo sapiens; HOP-62, NSC lung cancer; one dose 10 μM; read-out: Growth Inhibition Percentage (GI %)
[11] = system: SF-295; assay: NCI-60 anticancer screening (SRB); assay type: cell-based; conditions: Homo sapiens; SF-295, CNS cancer; one dose 10 μM; read-out: Growth Inhibition Percentage (GI %)
[12] = system: 786-0; assay: NCI-60 anticancer screening (SRB); assay type: cell-based; conditions: Homo sapiens; 786-0, renal cancer; one dose 10 μM; read-out: Growth Inhibition Percentage (GI %)
[13] = system: T-47D; assay: NCI-60 anticancer screening (SRB); assay type: cell-based; conditions: Homo sapiens, T47D, breast cancer, one dose 10 μM, read-out: Growth Inhibition Percentage (GI %)
[14] = system: SNB-19; assay: NCI-60 anticancer screening (SRB); assay type: cell-based; conditions: Homo sapiens; SNB-19, CNS cancer; one dose 10 μM; read-out: Growth Inhibition Percentage (GI %)
[15] = system: CAKI-1; assay: NCI-60 anticancer screening (SRB); assay type: cell-based; conditions: Homo sapiens; CAKI-1, renal cancer; one dose 10 μM; read-out: Growth Inhibition Percentage (GI %)
[16] = system: SK-MEL-2; assay: NCI-60 anticancer screening (SRB); assay type: cell-based; conditions: Homo sapiens; SK-MEL-2, melanoma; one dose 10 μM; read-out: Growth Inhibition Percentage (GI %)
[17] = system: SN 12C; assay: NCI-60 anticancer screening (SRB); assay type: cell-based; conditions: Homo sapiens, SN12C; SN 12C, renal cancer; one dose 10 μM; read-out: Growth Inhibition Percentage (GI %)
[18] = system: SF-539; assay: NCI-60 anticancer screening (SRB); assay type: cell-based; conditions: Homo sapiens; SF-539, CNS cancer; one dose 10 μM; read-out: Growth Inhibition Percentage (GI %)
[19] = system: SK-MEL-5; assay: NCI-60 anticancer screening (SRB); assay type: cell-based; conditions: Homo sapiens; SK-MEL-5, melanoma; one dose 10 μM; read-out: Growth Inhibition Percentage (GI %)
[20] = system: DU-145; assay: NCI-60 anticancer screening (SRB); assay type: cell-based; conditions: Homo sapiens; DU-145, prostate cancer; one dose 10 μM; read-out: Growth Inhibition Percentage (GI %)
[21] = system: NCI-H226; assay: NCI-60 anticancer screening (SRB); assay type: cell-based; conditions: Homo sapiens; NCI-H226, NSC lung cancer; one dose 10 μM; read-out: Growth Inhibition Percentage (GI %)
[22] = system: ACHN; assay: NCI-60 anticancer screening (SRB); assay type: cell-based; conditions: Homo sapiens, renal cancer, one dose 10 μM, read-out: Growth Inhibition Percentage (GI %)
[23] = system: LOX IMVI; assay: NCI-60 anticancer screening (SRB); assay type: cell-based; conditions: Homo sapiens, melanoma, one dose 10 μM, read-out: Growth Inhibition Percentage (GI %)
[24] = system: SF-268; assay: NCI-60 anticancer screening (SRB); assay type: cell-based; conditions: Homo sapiens; SF-268, CNS cancer; one dose 10 μM; read-out: Growth Inhibition Percentage (GI %)
[25] = system: U251; assay: NCI-60 anticancer screening (SRB); assay type: cell-based; conditions: Homo sapiens, U-251; U251, CNS cancer; one dose 10 μM; read-out: Growth Inhibition Percentage (GI %)
[26] = system: UACC-257; assay: NCI-60 anticancer screening (SRB); assay type: cell-based; conditions: Homo sapiens; UACC-257, melanoma; one dose 10 μM; read-out: Growth Inhibition Percentage (GI %)
[27] = system: A498; assay: NCI-60 anticancer screening (SRB); assay type: cell-based; conditions: Homo sapiens; A498, renal cancer; one dose 10 μM; read-out: Growth Inhibition Percentage (GI %)
[28] = system: NCI-H522; assay: NCI-60 anticancer screening (SRB); assay type: cell-based; conditions: Homo sapiens; NCI-H522, NSC lung cancer; one dose 10 μM; read-out: Growth Inhibition Percentage (GI %)
[29] = system: NCI-H460; assay: NCI-60 anticancer screening (SRB); assay type: cell-based; conditions: Homo sapiens; NCI-H460, NSC lung cancer; one dose 10 μM; read-out: Growth Inhibition Percentage (GI %)
[30] = system: HCT-116; assay: NCI-60 anticancer screening (SRB); assay type: cell-based; conditions: Homo sapiens; HCT-116, colon cancer; one dose 10 μM; read-out: Growth Inhibition Percentage (GI %)
[31] = system: SNB-75; assay: NCI-60 anticancer screening (SRB); assay type: cell-based; conditions: Homo sapiens; SNB-75, CNS cancer; one dose 10 μM; read-out: Growth Inhibition Percentage (GI %)
[32] = system: HT29; assay: NCI-60 anticancer screening (SRB); assay type: cell-based; conditions: Homo sapiens, HT-29; HT29, colon cancer; one dose 10 μM; read-out: Growth Inhibition Percentage (GI %)

Row | SMILES | inhibition at 10 µM [1] [%] | inhibition at 10 µM [2] [%] | inhibition at 10 µM [3] [%] | inhibition at 10 µM [4] [%] | inhibition at 10 µM [5] [%] | inhibition at 10 µM [6] [%] | inhibition at 10 µM [7] [%] | inhibition at 10 µM [8] [%] | inhibition at 10 µM [9] [%] | inhibition at 10 µM [10] [%] | inhibition at 10 µM [11] [%] | inhibition at 10 µM [12] [%] | inhibition at 10 µM [13] [%] | inhibition at 10 µM [14] [%] | inhibition at 10 µM [15] [%] | melting point [°C] | inhibition at 10 µM [16] [%] | inhibition at 10 µM [17] [%] | inhibition at 10 µM [18] [%] | inhibition at 10 µM [19] [%] | other results
1 | CCOC(=O)C1=C(N)N(c2ccccc2)C2=C(C(=O)CC(C)(C)C2)C1c1ccccc1OC (racemic) [6g, (±)-Ethyl 2-amino-4–(2-methoxyphenyl)-7,7-dimethyl-5-oxo-1-phenyl-1,4,5,6,7,8-hexahydroquinoline-3-carboxylate] | < 10 | < 10 | < 10 | < 10 | < 10 | < 10 | < 10 | < 10 | < 10 | < 10 | 11 | < 10 | < 10 | < 10 | < 10 | 243 to 245 | < 10 | < 10 | < 10 | < 10 | inhibition at 10 µM [20]: < 10%; inhibition at 10 µM [21]: < 10%; inhibition at 10 µM [22]: < 10%; inhibition at 10 µM [23]: < 10%; inhibition at 10 µM [24]: < 10%; inhibition at 10 µM [25]: < 10%; inhibition at 10 µM [26]: < 10%; inhibition at 10 µM [27]: < 10%; inhibition at 10 µM [28]: < 10%; inhibition at 10 µM [29]: < 10%; inhibition at 10 µM [30]: < 10%; inhibition at 10 µM [31]: < 10%; inhibition at 10 µM [32]: < 10%
2 | CCOC(=O)C1=C(N)N(c2ccccc2)C2=C(C(=O)CC(C)(C)C2)C1c1ccc(OC)cc1 (racemic) [8f, (±)-Ethyl2-amino-4–(4-methoxyphenyl)-7,7-dimethyl-5-oxo-1-phenyl-1,4,5,6,7,8-hexahydroquinoline-3-carboxylate] | 18 | < 10 | 15 | < 10 | < 10 | < 10 | < 10 | < 10 | < 10 | < 10 | < 10 | 11 | 11 | 14 | 22 | 169 to 171 | 16 | < 10 | < 10 | < 10 | inhibition at 10 µM [20]: < 10%; inhibition at 10 µM [21]: 12%; inhibition at 10 µM [22]: < 10%; inhibition at 10 µM [23]: < 10%; inhibition at 10 µM [24]: < 10%; inhibition at 10 µM [25]: < 10%; inhibition at 10 µM [26]: < 10%; inhibition at 10 µM [27]: < 10%; inhibition at 10 µM [28]: < 10%; inhibition at 10 µM [29]: < 10%; inhibition at 10 µM [30]: 14%; inhibition at 10 µM [31]: < 10%; inhibition at 10 µM [32]: < 10%
3 | CCOC(=O)C1=C(N)N(c2ccccc2)C2=C(C(=O)CC(C)(C)C2)C1c1ccccn1 (racemic) [12a, (±)-Ethyl 2-amino-7,7-dimethyl-5-oxo-1-phenyl-4-(pyridin-2-yl)-1,4,5,6,7,8-hexahydroquinoline-3-carboxylate] | 16 | < 10 | < 10 | < 10 | < 10 | < 10 | < 10 | < 10 | < 10 | < 10 | < 10 | < 10 | < 10 | < 10 | < 10 | 158 to 160 | < 10 | < 10 | < 10 | < 10 | inhibition at 10 µM [20]: < 10%; inhibition at 10 µM [21]: < 10%; inhibition at 10 µM [22]: < 10%; inhibition at 10 µM [23]: < 10%; inhibition at 10 µM [24]: < 10%; inhibition at 10 µM [25]: < 10%; inhibition at 10 µM [26]: < 10%; inhibition at 10 µM [27]: < 10%; inhibition at 10 µM [28]: 11%; inhibition at 10 µM [29]: < 10%; inhibition at 10 µM [30]: < 10%; inhibition at 10 µM [31]: 19%; inhibition at 10 µM [32]: < 10%
